pIC50: −log10 of the molar value. “Also recorded” adds a separate entry of the source.
Assays:
[1] = test system: actin filaments underlying the plasma membrane (cortex actin); conditions: inhibits HSPG-mediated endocytosis; cited from earlier work
[2] = test system: SARS-CoV-2 pseudotyped particles; format: cell-based; conditions: read-out: IC50, anti-pseudotyped particle activity
[3] = test system: cortex actin filaments in U2OS cells; format: cell-based
[4] = test system: HSPG-mediated endocytosis of α-Synuclein fibrils in HEK293T cells; assay: α-Synuclein fibrils uptake assay; format: cell-based; conditions: among the top 10 inhibitors
[5] = test system: SARS-CoV-2; conditions: among drugs of the repurposing screen; cited from earlier work

Compound: O=C1/C(=C/c2ccccc2)C[C@@]2(O)[C@H]3Cc4ccc(O)c5c4[C@@]2(CCN3CC2CC2)[C@H]1O5 [BNTX]
- Disruption of actin filaments underlying the plasma membrane (cortex actin) [1]: effectively disrupt the actin filaments

Compound: CC(C)S(=O)(=O)c1oc(-c2ccc(F)cc2)nc1S(=O)(=O)c1ccccc1 [NCGC00115755-02]
- pIC50 [2]: 5.30
- Effect on actin filaments (phalloidin-Alexa488 staining) [3]: dose-dependent disruption of cortex actin filaments; also recorded: causes the disassembly of actin stress fiber and generates large actin aggregates

Compound: O=C(Oc1cccc2cccnc12)c1ccccc1 [NCGC00159478]
- Inhibition of the entry of pHrodo-labeled α-Synuclein fibrils (ranking in words) [4]: highest inhibition

Compound: CN(C)CCNC(=O)c1nc(-c2ccc(N3CCN(C)CC3)cc2)cc2c1ccn2C [NCGC00411718]
- Inhibition of the entry of pHrodo-labeled α-Synuclein fibrils (ranking in words) [4]: highest inhibition

Compound: CCN(CC)CCNC(=O)c1c(C)[nH]c(/C=C2\C(=O)Nc3ccc(F)cc32)c1C [Sunitinib]
- Disruption of actin filaments underlying the plasma membrane (cortex actin) [1]: effectively disrupt the actin filaments

Compound: O=C1c2c(O)ccc(O)c2C(=O)c2c(NCCNCCO)ccc(NCCNCCO)c21 [mitoxantrone]
- Antiviral activity in vitro (in words) [5]: most potent antiviral activity in vitro
